This data set is described as follows: Dissolution of THCA crystalline powder in distilled water at different pH. It counts as physicochemical. Here is the method:
50 mgs of high purity (>99% by weight) THCA crystalline powder was added to 250 ml of distilled water at a pH of 6.5.
The distilled water and THCA from Comparative Example 1 was brought to a pH of 9.5 through the addition of a base and warmed to 40° C.

Each structure is given as a SMILES string.

Take `CCCCCc1cc2c(c(O)c1C(=O)O)[C@@H]1C=C(C)CC[C@H]1C(C)(C)O2` [THCA, tetrahydrocannabinolic acid]: the “Dissolution in distilled water after heating” value (50 mgs in 250 ml distilled water, pH 6.5, heated to 100° C.) is “still did not dissolve”. Also, the “Dissolution in distilled water” value (50 mgs in 250 ml distilled water, pH 6.5, immediately and after stirring) was “did not immediately dissolve, not did it dissolve after stirring”. The “Dissolution in alkaline water” value (50 mgs in 250 ml water, pH 9.5 by addition of a base, warmed to 40° C.) is “dissolved into solution and produced a clear aqueous solution”. Besides, under “pH 9.5 solution cooled to room temperature”, the “Solution stability after cooling” value is “the solution remained clear”.

Source of the values: US12336554B2, “Cannabinoid acid beverage” (CHEMTOR, LP, priority 2020, dated 2025).
